Source: patent US20080108574A1, “MELANOCORTIN RECEPTOR MEDIATED MODULATION OF NEUROGENESIS” (BrainCells, Inc., priority 2006, published 2008)

Key:
human mGlu2 = human mGlu2 (Homo sapiens, UniProt Q14416); conditions: in vitro, agonist; read-out: EC50 against human mGlu2 receptors; cited from earlier work
human mGlu3 = human mGlu3 (Homo sapiens, UniProt Q14832); conditions: in vitro, agonist; read-out: EC50 against human mGlu3 receptors; cited from earlier work
[1] = tested on: human neural stem cells (hNSCs)
Description: In one non-limiting example neurogenesis, a neurogenic response, and neurodifferentiation are all measured in an in vitro assay as follows. […] Mitogen-free test media with a positive control is used for neuronal differentiation, and basal media without growth factors serves as a negative control. Neurogenesis is determined, for example, by measuring the proliferation and/or differentiation of the hNSCs in the presence of varying concentrations of test compound compared to the absence of the test compound (negative control). […] Neurodifferentiation is measured, for example, by detecting neurodifferentiation specific expression markers which methods are known in the art.
(§1) A positive control for neuronal differentiation was used along with basal media without growth factors as a negative control.
as §1

Group I receptors = conditions: sub-mM concentrations; cited from earlier work
Group III receptors = conditions: sub-mM concentrations; cited from earlier work
mGluR3 = mGluR3 (Homo sapiens, UniProt Q14832); conditions: read-out: IC50 against mGluR3; cited from earlier work
Sequence of mGluR3 (Q14832 23-879): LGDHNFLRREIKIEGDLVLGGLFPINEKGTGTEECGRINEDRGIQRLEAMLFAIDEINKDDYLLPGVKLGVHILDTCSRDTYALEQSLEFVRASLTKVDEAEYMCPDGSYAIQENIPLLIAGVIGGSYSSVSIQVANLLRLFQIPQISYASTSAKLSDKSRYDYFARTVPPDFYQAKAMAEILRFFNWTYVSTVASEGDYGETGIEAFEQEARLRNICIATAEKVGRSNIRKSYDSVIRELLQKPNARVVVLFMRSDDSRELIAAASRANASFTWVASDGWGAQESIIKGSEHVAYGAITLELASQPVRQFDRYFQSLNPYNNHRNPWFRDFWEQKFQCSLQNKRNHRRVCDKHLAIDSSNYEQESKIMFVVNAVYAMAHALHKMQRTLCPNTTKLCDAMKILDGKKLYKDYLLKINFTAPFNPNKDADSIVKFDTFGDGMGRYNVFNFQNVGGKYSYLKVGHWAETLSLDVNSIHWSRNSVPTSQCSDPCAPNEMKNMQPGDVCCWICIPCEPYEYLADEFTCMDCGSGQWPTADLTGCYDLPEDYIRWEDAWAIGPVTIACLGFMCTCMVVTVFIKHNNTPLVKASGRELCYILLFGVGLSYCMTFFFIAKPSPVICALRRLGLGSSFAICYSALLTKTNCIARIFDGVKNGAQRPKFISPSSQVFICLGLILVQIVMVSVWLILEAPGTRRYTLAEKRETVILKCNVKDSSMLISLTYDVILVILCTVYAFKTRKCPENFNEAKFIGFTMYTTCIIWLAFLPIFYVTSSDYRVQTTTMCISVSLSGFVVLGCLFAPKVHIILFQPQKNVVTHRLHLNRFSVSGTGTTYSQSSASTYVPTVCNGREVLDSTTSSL

mGluR2 = mGluR2 (Homo sapiens, UniProt Q14416); conditions: read-out: IC50 against mGluR2; cited from earlier work
Sequence of mGluR2 (Q14416 19-872): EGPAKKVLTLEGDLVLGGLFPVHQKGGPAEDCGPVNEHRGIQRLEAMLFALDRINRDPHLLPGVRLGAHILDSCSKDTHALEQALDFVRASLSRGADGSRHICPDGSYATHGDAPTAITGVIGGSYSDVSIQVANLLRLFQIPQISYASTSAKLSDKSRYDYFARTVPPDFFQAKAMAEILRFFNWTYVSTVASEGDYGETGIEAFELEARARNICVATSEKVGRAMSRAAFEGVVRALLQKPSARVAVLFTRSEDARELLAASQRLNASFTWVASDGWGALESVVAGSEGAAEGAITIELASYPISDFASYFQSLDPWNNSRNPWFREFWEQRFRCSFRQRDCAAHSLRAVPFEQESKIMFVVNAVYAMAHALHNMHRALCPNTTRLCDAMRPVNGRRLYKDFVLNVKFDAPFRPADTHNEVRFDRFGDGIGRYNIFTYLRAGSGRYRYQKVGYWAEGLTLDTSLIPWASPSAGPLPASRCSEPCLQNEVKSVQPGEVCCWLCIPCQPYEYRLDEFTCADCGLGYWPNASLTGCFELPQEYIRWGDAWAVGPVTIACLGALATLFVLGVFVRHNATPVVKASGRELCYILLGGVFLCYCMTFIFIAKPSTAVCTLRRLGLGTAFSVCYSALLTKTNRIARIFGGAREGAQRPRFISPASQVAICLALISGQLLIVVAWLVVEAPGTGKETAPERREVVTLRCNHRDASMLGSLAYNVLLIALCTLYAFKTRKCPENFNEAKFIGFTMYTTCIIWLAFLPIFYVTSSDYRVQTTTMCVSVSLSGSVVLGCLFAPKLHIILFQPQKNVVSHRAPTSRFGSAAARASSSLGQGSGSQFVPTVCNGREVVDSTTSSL

KA iGlu receptors = conditions: cited from earlier work
AMPA iGlu receptors = conditions: cited from earlier work
NMDA iGlu receptors = conditions: cited from earlier work

Sequence of human mGlu2 (Q14416 19-872): as above
Sequence of human mGlu3 (Q14832 23-879): as the sequence (Q14832 23-879) above

For N[C@@]1(C(=O)O)CO[C@H]2[C@H](C(=O)O)[C@H]21 [LY379268, (−)-2-Oxa-4-aminobicyclohexane-4,6-dicarboxylic acid], the EC50 (human mGlu2) is listed as under 0.01 µM and the EC50 (human mGlu3) is listed as under 0.01 µM.
With Clc1ccc2c(c1)N=C(N1CCNCC1)c1ccccc1N2 [N-desmethylclozapine] the neurogenic activity ([1]; in assays as disclosed herein) was “highly neurogenic”.
For NC1(C(=O)O)CCc2cc(P(=O)(O)O)ccc21 (racemic) [APICA, (RS)-1-amino-5-phosphonoindan-1-carboxylic acid], the “activity against Group I receptors” value (Group I receptors) is given as “no appreciable activity”, the “activity against Group III receptors” value (Group III receptors) is given as “no appreciable activity” and the IC50 (mGluR3) is given as about 30 µM. The IC50 (mGluR2) was about 30 µM.
With CCCC[C@H](NC(C)=O)C(=O)N[C@H]1CC(=O)NCCCC[C@@H](C(=O)O)NC(=O)[C@H](Cc2c[nH]c3ccccc23)NC(=O)[C@H](CCCNC(=N)N)NC(=O)[C@@H](Cc2ccccc2)NC(=O)[C@H](Cc2c[nH]cn2)NC1=O [PT-141, bremelanotide] the “effect on neuronal differentiation” value ([1]; hNSCs, dose response, TUJ-1 staining) was “promoted neuronal differentiation” and the EC50 ([1]; read-out: EC50, neuronal differentiation, hNSCs, percent of neuronal positive control, basal media values subtracted) was 0.2 µM.
In the case of N[C@](CC1c2ccccc2Oc2ccccc21)(C(=O)O)[C@H]1C[C@@H]1C(=O)O [LY341495, (2S)-2-amino-2-(1S,2S-2-carboxycycloprop-1-yl)-3-(xanth-9-yl)propanoic acid], the “activity against KA iGlu receptors” value (KA iGlu receptors) is listed as “substantially inactive”, the “activity against AMPA iGlu receptors” value (AMPA iGlu receptors) is listed as “substantially inactive” and the “activity against NMDA iGlu receptors” value (NMDA iGlu receptors) is listed as “substantially inactive”.
